# Source: US9365584B2, “Thieno [2,3-B] pyridinedione activators of AMPK and therapeutic uses thereof” (Poxel, priority 2009, dated 2016)
# Tested on: AMPK
# Test: AMPK enzyme activity assay (Delfia technology, AMARA peptide substrate)
# Format: biochemical
# Conditions: compound at 30 μM vs AMP at 200 μM
# How it was run: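 Value is the ratio of compound (30 μM) to AMP (200 μM) response, each as % of basal control. Phosphorylation of the AMARA peptide after AMPK addition was read by Delfia with an anti-phosphoserine antibody.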
row,Compound,Activity: Ratio between the % of control (basal activity) of compound of formula (1) at 30 μM and the % of control (basal activity) of AMP (natural substrate) at 200 μM
1,"O=C1Nc2scc(-c3ccc(F)cc3OCc3ccccc3)c2C(=O)C1(F)c1ccccc1 (stereo not shown) [No 174, 3-(2-benzyloxy-4-fluoro-phenyl)-5-fluoro-5-phenyl-7H-thieno[2,3-b]pyridine-4,6-dione]",A (0%<A<50%)
2,"O=C1Nc2sc(F)c(-c3ccc(F)cc3OCc3ccccc3)c2C(=O)C1(F)c1ccccc1 (stereo not shown) [No 175, 3-(2-benzyloxy-4-fluoro-phenyl)-2,5-difluoro-5-phenyl-7H-thieno[2,3-b]pyridine-4,6-dione]",A (0%<A<50%)
3,"O=C1Nc2scc(-c3ccccc3F)c2C(=O)C1(F)c1ccccc1 (stereo not shown) [No 177, 5-fluoro-3-(2-fluorophenyl)-5-phenyl-7H-thieno[2,3-b]pyridine-4,6-dione]",A (0%<A<50%)
4,"COc1ccccc1-c1csc2c1C(=O)C(F)(c1ccccc1)C(=O)N2 (stereo not shown) [No 180, 5-fluoro-3-(2-methoxyphenyl)-5-phenyl-7H-thieno[2,3-b]pyridine-4,6-dione]",A (0%<A<50%)
5,"COc1cccc(C2(F)C(=O)Nc3scc(-c4ccccc4)c3C2=O)c1 (stereo not shown) [No 182, 5-fluoro-5-(3-methoxyphenyl)-3-phenyl-7H-thieno[2,3-b]pyridine-4,6-dione]",C (C≧75%)
6,"COc1cccc(C2(F)C(=O)Nc3sc(F)c(-c4ccccc4)c3C2=O)c1 (stereo not shown) [No 183, 2,5-difluoro-5-(3-methoxyphenyl)-3-phenyl-7H-thieno[2,3-b]pyridine-4,6-dione]",B (50%≦B<75%)
7,"Cc1cccc(C2(F)C(=O)Nc3sc(Cl)c(-c4ccc(C)c(C)c4)c3C2=O)c1 (stereo not shown) [No 186, 2-chloro-3-(3,4-dimethylphenyl)-5-fluoro-5-(m-tolyl)-7H-thieno[2,3-b]pyridine-4,6-dione]",C (C≧75%)

# Other lines, results leading:
row,Activity: Ratio between the % of control (basal activity) of compound of formula (1) at 30 μM and the % of control (basal activity) of AMP (natural substrate) at 200 μM,Compound
1,C (C≧75%),"Cc1cccc(C2(Cl)C(=O)Nc3sc(Cl)c(-c4ccc(F)cc4O)c3C2=O)c1 (stereo not shown) [No 176, 2,5-dichloro-3-(4-fluoro-2-hydroxy-phenyl)-5-(m-tolyl)-7H-thieno[2,3-b]pyridine-4,6-dione]"
2,B (50%≦B<75%),"O=C1Nc2sc(F)c(-c3ccccc3F)c2C(=O)C1(F)c1ccccc1 (stereo not shown) [No 178, 2,5-difluoro-3-(2-fluorophenyl)-5-phenyl-7H-thieno[2,3-b]pyridine-4,6-dione]"
3,A (0%<A<50%),"O=C1Nc2scc(-c3ccc(F)cc3F)c2C(=O)C1(F)c1ccccc1 (stereo not shown) [No 179, 3-(2,4-difluorophenyl)-5-fluoro-5-phenyl-7H-thieno[2,3-b]pyridine-4,6-dione]"
4,A (0%<A<50%),"COc1ccccc1-c1c(F)sc2c1C(=O)C(F)(c1ccccc1)C(=O)N2 (stereo not shown) [No 181, 2,5-difluoro-3-(2-methoxyphenyl)-5-phenyl-7H-thieno[2,3-b]pyridine-4,6-dione]"
5,C (C≧75%),"Cc1cccc(C2(F)C(=O)Nc3sc(Cl)c(-c4ccc(F)cc4O)c3C2=O)c1 (stereo not shown) [No 184, 2-chloro-5-fluoro-3-(4-fluoro-2-hydroxy-phenyl)-5-(m-tolyl)-7H-thieno[2,3-b]pyridine-4,6-dione]"
6,C (C≧75%),"Cc1c(F)ccc(-c2c(Cl)sc3c2C(=O)C(F)(c2ccccc2)C(=O)N3)c1O (stereo not shown) [No 185, 2-chloro-5-fluoro-3-(4-fluoro-2-hydroxy-3-methyl-phenyl)-5-phenyl-7H-thieno[2,3-b]pyridine-4,6-dione]"
